The values below come from PubChem BioAssay (NCI).

Assay in all cases: NCI tumour cell line growth inhibition, 48 h
The test system of assay [1] is A549 NSCLC.
For assay [2], the system named is ACHN renal.
The subject of assay [3] is UACC-257 melanoma.
For assay [4], the system named is HOP-62 NSCLC.
Assay [5] concerns LOX IMVI melanoma.
Assay [6] deals with KM12 colon.
Assay [7] deals with NCI-H23 lung.
Assay [8] has as its system RPMI-8226 leukemia.
The test system of assay [9] is SK-MEL-2 melanoma.
The subject of assay [10] is SF-295 CNS.

The structures appear in SMILES notation. “And” between values parts separate entries of the source, which are not always exact repeats. Equal values may be shown once.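 Dose response: 5 concentrations. Exposure: 48 h. Format: 96-well plates. Endpoint: linear interpolation; highest concentration if not reached. Here, GI50 denotes the concentration required for 50% inhibition of growth. At the TGI there is no net growth.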

In the case of `Cc1ccc(C(=O)NC2CCCCC2)cc1-c1ccc(C(=O)NCC2CC2)cc1`, the GI50 is 12.4 µM in assay [1]; more than 25 µM in assay [2]; more than 25 µM in assay [3]; more than 25 µM in assay [4]; more than 25 µM in [5]; more than 22.5 µM in assay [6]. The GI50 in assay [7] is more than 25 µM; in assay [8], more than 25 µM; in [9], more than 25 µM; in assay [10], 10.8 µM. Besides, the TGI in assay [1], in assay [2], in assay [3], in [4], in [5] and in assay [6] was more than 25 µM in each case. The TGI in [7], in [8], in assay [9] and in assay [10] was more than 25 µM each time.

Turning to `CO[C@H]1CC[C@@]2(C)C(=CC[C@H]3[C@@H]4C[C@H](O)C[C@@]4(C)CC[C@@H]32)C1`, the GI50 was 4.42 µM in assay [1]; 8.2 µM in assay [2]; 4.89 µM in assay [3]; 10.2 µM in assay [4]; 6.17 µM in [5]; 4.5 µM in assay [6]. Besides, the GI50 in assay [7] is 5.54 µM; in assay [8], 3.68 µM; in assay [9] it was 2.74 µM; in [10], 2.45 µM. Besides, the TGI turned out to be 19.6 µM in assay [1]; 28.3 µM in assay [2]; 17.9 µM in assay [3]; 52.4 µM in [4]; 24.5 µM in assay [5]; 15.8 µM in assay [6]. In addition, the TGI was found to be 27.1 µM in assay [7], 54.2 µM in [8], 6.83 µM in [9] and 8.02 µM in assay [10].

For the compound `Cc1ccc(NC(=O)c2ccnc(N3CCCC3)c2)cc1-c1ccc(C(=O)NCC2CC2)cc1`, the GI50 in [1], in assay [2], in assay [3], in assay [4], in assay [5] and in [6] was more than 25 µM each time. Moreover, the GI50 in [7], in assay [8], in assay [9] and in assay [10] was more than 25 µM in each case. The TGI in assay [1], in assay [2], in [3], in assay [4], in assay [5] and in assay [6] was more than 25 µM in each case. Also, the TGI in assay [7], in assay [8], in assay [9] and in assay [10] was more than 25 µM in each case.

`O=C1C=CC2(C=C1)CCN=c1c(O)c3c(c(O)c12)=NC=N3`: the GI50 is 17.9 µM and > 100 µM in [1]; 12.6 µM and > 100 µM in assay [2]; 16.3 µM and > 100 µM in assay [4]; 14.4 µM and > 100 µM in assay [6]; 12.2 µM and > 100 µM in assay [8]; 20 µM and > 100 µM in [10]. Moreover, the TGI is 39.2 µM and > 100 µM in [1]; 25.7 µM and > 100 µM in assay [2]; 21.6 µM and > 100 µM in assay [3]; 30.3 µM and > 100 µM in assay [4]; 15.1 µM and > 100 µM in [5]; 29.1 µM and > 100 µM in [6]. Further, the TGI in assay [7] was 19.5 µM and > 100 µM; in assay [8], 42.3 µM and > 100 µM; in assay [9], 16 µM and > 100 µM; in assay [10], 34.4 µM and > 100 µM.

With `O=C(O)/C(Cl)=C(\Cl)C(=O)Nc1ccccc1`, the TGI in assay [1], in [2], in [3], in [4], in [5] and in assay [6] was more than 100 µM in each case. Further, the TGI in assay [7], in assay [8], in assay [9] and in assay [10] was more than 100 µM throughout.

As for `O=C(/C=C\Sc1nccc(C(F)(F)F)n1)c1ccc(Br)cc1`, the GI50 in assay [1] is more than 100 µM; in assay [2] it was 15.9 µM; in assay [3], 56.4 µM; in assay [4], more than 100 µM; in [5], 13.7 µM; in assay [6], 38.1 µM. Further, the GI50 in [7] was 22.8 µM; in assay [8], 2.24 µM; in assay [9], more than 100 µM; in assay [10], more than 100 µM. Moreover, the TGI was more than 100 µM in assay [1]; 29.7 µM in [2]; more than 100 µM in assay [3]; more than 100 µM in assay [4]; 27.2 µM in assay [5]; more than 100 µM in [6]. Further, the TGI was 52.6 µM in assay [7], 4.63 µM in assay [8], more than 100 µM in assay [9] and more than 100 µM in assay [10].

Regarding `Cn1cc(C2=C(c3c4n(c5ccccc35)CCC(CN)CC4)C(=O)NC2=O)c2ccccc21` (stereo unspecified), the GI50 was 4.14 µM in assay [1]; 4.43 µM in assay [2]; 3.89 µM in [3]; 3.93 µM in assay [4]; 5.26 µM in assay [5]; 3.88 µM in assay [6]. Further, the GI50 in assay [7] was 5.05 µM; in assay [8] it was 4.41 µM; in [9], 4.02 µM; in [10], 4.01 µM. Also, the TGI is 9.24 µM in [1]; 8.67 µM in [2]; 7.57 µM in [3]; 8.22 µM in [4]; 11.4 µM in assay [5]; 7.39 µM in [6]. The TGI in assay [7] was determined as 10.9 µM; in assay [8], 10.8 µM; in assay [9] it was 8.25 µM; in assay [10] it was 8.02 µM.

With `O=C1/C(=C/c2ccc(Cl)cc2)CN(C(=O)C(Cl)Cl)C/C1=C\c1ccc(Cl)cc1`, the GI50 was 0.275 µM in [1]; 0.214 µM in [2]; 0.465 µM in assay [3]; 0.288 µM in [4]; 0.0321 µM in assay [5]; 0.0912 µM in assay [6]. The GI50 in assay [7] was 0.242 µM; in [8], 0.0302 µM; in assay [9] it was 1.18 µM; in assay [10], 0.214 µM. The TGI in [1] was found to be 1.05 µM; in assay [2] it was 0.475 µM; in [3] it was 1.55 µM; in [4], 0.94 µM; in [5], 0.121 µM; in [6] it was 0.273 µM. Besides, the TGI in [7] turned out to be 0.887 µM; in assay [8], 0.169 µM; in assay [9], 3.07 µM; in assay [10] it was 0.683 µM.

For `CSC(=S)NNC(=O)c1ccncc1`, the TGI in assay [1] was more than 100 µM; in [2] it was 36.2 µM; in assay [3], 56.7 µM; in assay [4], 70.2 µM; in assay [5] it was 33.6 µM; in assay [6], more than 100 µM. The TGI in assay [7] came to 33.2 µM; in assay [8] it was 47.8 µM; in [9], 33.9 µM; in [10] it was 46.9 µM.

As to `O=C(O)CC1(C(=O)O)CCCCC1`, the TGI in assay [1], in assay [2], in [3], in assay [4], in assay [5] and in assay [6] was more than 100 µM throughout. The TGI in [7], in assay [8], in assay [9] and in assay [10] was more than 100 µM each time.

Turning to `C=CCN(N=O)C(=O)N(CCC)CCCCC(NC(C)=O)C(=O)NCc1ccccc1` (stereo unspecified), the TGI in assay [1], in [2], in assay [3], in assay [4], in [5] and in [6] was more than 100 µM throughout. Further, the TGI in assay [7], in [8], in assay [9] and in assay [10] was more than 100 µM in each case.

Regarding `CCN(CC)c1ccc2c(c1)N=C1N=CC=CN1C2(c1ccc(N(C)C)cc1)c1ccc(N(C)C)cc1`, the TGI in assay [1] came to 28 µM; in assay [2] it was 16.1 µM; in assay [3], 19.5 µM; in assay [4], 24.3 µM; in assay [5], 18.4 µM; in [6] it was 15.6 µM. Also, the TGI in assay [7] was 20.2 µM; in assay [8], 8.1 µM; in assay [9], 31.1 µM; in [10], 15.6 µM.

In the case of `COc1ccccc1NC(=O)C1=C(C)NC(C)=C(C(=O)Nc2ccccc2OC)C1c1ccccc1OC`, the TGI in assay [1], in assay [2], in [3], in assay [4], in assay [5] and in assay [6] was more than 100 µM each time. Further, the TGI in assay [7], in assay [8], in [9] and in assay [10] was more than 100 µM throughout.

With `COC(=O)c1c2c(c(C)[n+]([O-])c1C)C(=O)C(NCc1ccc(F)c(F)c1)=CC2=O`, the GI50 was 2.1 µM in assay [1]; 2.48 µM in assay [2]; 1.13 µM in assay [3]; 2.45 µM in [4]; 1.98 µM in assay [5]; 2.16 µM in [6]. For the same compound, the GI50 in assay [7] was 1.87 µM; in [8], 2.05 µM; in [9] it was 2.16 µM; in assay [10], 1.88 µM. The TGI in assay [1] amounted to 6.17 µM; in assay [2], 7.68 µM; in assay [3] it was 2.96 µM; in assay [4], 7.47 µM; in [5] it was 6.76 µM; in assay [6], 8.15 µM. Also, the TGI is 4.52 µM in assay [7], 5.6 µM in assay [8], 6.73 µM in [9] and 4.64 µM in assay [10].
